The values below come from patent US20070218462A1, “Method of Predicting a Benefit of Antioxidant Therapy for Prevention of Cardiovascular Disease in Hiperglycemic Patients” (priority 2003, published 2007).

In experiment [1] the test system is patients at high risk of cardiovascular events. Conditions: daily administration of 400 IU for 4.5 years; original HOPE study report; cited from earlier work.
The test system is the same in experiment [2]. Nature of the experiment: HOPE study: relative risk of primary CV outcomes with vitamin E or ramipril, by haptoglobin phenotype. Type of experiment: in vivo, human. The source says: HOPE study and patient characteristics: The Heart Outcomes Prevention Evaluation (HOPE) study was designed to test the hypotheses that two preventive intervention strategies, namely angiotensin-converting enzyme (ACE) inhibition or vitamin E, would improve morbidity and mortality in patients at high risk of cardiovascular events compared with placebo. Patients were included in the study who were considered to be at high risk of future fatal or non-fatal cardiovascular events, by virtue of their age (>55 years), existing or previous cardiovascular disease, or diabetes. Diabetics had at least one other risk factor, either known vascular disease or other factors such as cigarette smoking, high cholesterol or hypertension. Ramipril or placebo was added to concomitant medication, which included, in a substantial proportion of patients, antihypertensive drugs (excluding ACE-I), lipid-lowering agents or aspirin. The HOPE study design and protocols have been previously described in detail (see, for example, The Heart Outcomes Prevention Evaluation Study Investigators NE J Med, 2000; 342:154-60 and […] Angioten Aldost Sys 2000;1:18-20). Briefly, the study population consisted over 9,451 patients at high risk of CVD (3,654 DM). […] Patients were followed for a mean of 4.5 years. The primary study outcome was the composite of non-fatal MI, stroke or cardiovascular death. For samples from the HOPE Study, haptoglobin phenotyping was performed from 10 ul of plasma by polyacrylamide gel electrophoresis according to established methods (Hochberg I et al Atherosclerosis 2002;161:441-446). A signature banding pattern is obtained from individuals who are homozygous for the 1 allele (Hp 1-1), homozygous for the 2 allele (Hp 2-2) or who are heterozygous at the haptoglobin locus (Hp 2-1). We have established 100% concordance between the haptoglobin phenotype as determined from plasma and the haptoglobin genotype as determined from genomic DNA by the polymerase chain reaction (Koch W, et al Clin Chem 2002; 277:13635-40). An unambiguous haptoglobin phenotype was obtained on greater than 99.6% of all samples assayed. Haptoglobin phenotyping was performed with no knowledge of the patients clinical or treatment status. All analyses of the HOPE Study data were carried out using SAS 6.02. Baseline characteristics of patients according to haptoglobin were compared by t tests or χ^2 tests as appropriate. […] Patient characteristics of HOPE samples undergoing haptoglobin phenotyping: Haptoglobin phenotype was obtained on 3176 patients (1078 diabetics) from the origianl HOPE cohort for whom plasma was originally archived. These patients represented a randomly selected consecutive series of cohort according to CVD risk factors and treatment regimen is shown in Table 4 below.

The subject of experiment [3] is unselected samples or Diabetic patients. Nature of the experiment: CVD outcomes and Vitamin C supplementation (data not shown). It counts as in vivo, human.
[4] abbreviates: All patients, Hp 1-1, with vitamin E vs without vitamin E.
Setting [5] is: All patients, Hp 2-1, with vitamin E vs without vitamin E.
The mark [6] stands for this setting: All patients, Hp 2-2, with vitamin E vs without vitamin E.
[7] abbreviates: DM Patients only, Hp 1-1, with vitamin E vs without vitamin E.
Where [8] appears, read: DM Patients only, Hp 2-1, with vitamin E vs without vitamin E.
Setting [9] is: DM Patients only, Hp 2-2, with vitamin E vs without vitamin E.
[10] abbreviates: entire sample, regardless of haptoglobin type.
[11] abbreviates: All patients, Hp 1-1, with ramipril vs without ramipril.
Setting [12] is: All patients, Hp 2-1, with ramipril vs without ramipril.
Setting [13] is: All patients, Hp 2-2, with ramipril vs without ramipril.
Where [14] appears, read: DM Patients only, Hp 1-1, with ramipril vs without ramipril.
[15] abbreviates: DM Patients only, Hp 2-1, with ramipril vs without ramipril.
Setting [16] is: DM Patients only, Hp 2-2, with ramipril vs without ramipril.

Structures are written as SMILES. “Also recorded” adds a separate entry of the source.

For the molecule `CC(=O)Oc1c(C)c(C)c2c(c1C)CC[C@@](C)(CCC[C@H](C)CCC[C@H](C)CCCC(C)C)O2` [Vitamin E, RRR-a-tocophorol acetate], the “clinical benefit on cardiovascular (CV) outcomes” value in experiment [1] is “failed to demonstrate any clinical benefit”. Moreover, the “Relative Risk Ratio, CV death (95% CI)” value in experiment [2] (setting [4]) is on record as 1.10 (0.56-2.12); in experiment [2] (setting [5]), 1.07 (0.69-1.64); in experiment [2] (setting [6]) it was 0.75 (0.48-1.16); in experiment [2] (setting [7]), 0.64 (0.21-1.92); in experiment [2] (setting [8]) it was 1.0 (0.53-1.93); in experiment [2] (setting [9]), 0.45 (0.23-0.90). For the same molecule, the “Relative Risk Ratio, MI (95% CI)” value is 0.79 (0.47-1.33) in experiment [2] (setting [4]); 1.02 (0.75-1.38) in experiment [2] (setting [5]); 0.94 (0.68-1.30) in experiment [2] (setting [6]); 0.83 (0.33-2.06) in experiment [2] (setting [7]); 0.99 (0.45-2.18) in experiment [2] (setting [8]); 0.57 (0.33-0.97) in experiment [2] (setting [9]). Moreover, the “Relative Risk Ratio, Primary (95% CI)” value is 0.97 (0.63-1.50) in experiment [2] (setting [4]); 0.96 (0.74-1.25) in experiment [2] (setting [5]); 0.92 (0.69-1.22) in experiment [2] (setting [6]); 0.84 (0.40-1.79) in experiment [2] (setting [7]); 1.08 (0.72-1.61) in experiment [2] (setting [8]); 0.70 (0.45-1.10) in experiment [2] (setting [9]). For the same molecule, the “Relative Risk Ratio, Stroke (95% CI)” value in experiment [2] (setting [4]) is recorded as 1.50 (0.56-4.04); in experiment [2] (setting [5]), 0.92 (0.53-1.60); in experiment [2] (setting [6]), 0.85 (0.46-1.57); in experiment [2] (setting [7]) it was 2.24 (0.41-12.4); in experiment [2] (setting [8]) it was 0.99 (0.45-2.18); in experiment [2] (setting [9]), 1.15 (0.47-2.82). Besides, the “benefit of vitamin E therapy for any of the primary CV outcomes” value in experiment [2] (DM patients, other haptoglobin phenotypes (Hp 1-1 and Hp 2-1)) is “no significant benefit”. Moreover, the “benefit of vitamin E supplementation for any of the primary CV outcomes” value in experiment [2] (setting [10]) is given as “no significant benefit”. Besides, the “benefit of vitamin E supplementation” value in experiment [2] (unselected DM group) is reported as “no significant benefit; also recorded: no apparent benefit”.

For `CCOC(=O)[C@H](CCc1ccccc1)N[C@@H](C)C(=O)N1[C@H](C(=O)O)C[C@@H]2CCC[C@@H]21` [Ramipril, ramipril], the “Relative Risk Ratio, CV death (95% CI)” value in experiment [2] (setting [11]) is reported as 0.58 (0.29-1.18); in experiment [2] (setting [12]) it was 1.02 (0.66-1.58); in experiment [2] (setting [13]) it was 0.87 (0.55-1.37); in experiment [2] (setting [14]) it was 0.42 (0.13-1.36); in experiment [2] (setting [15]) it was 0.97 (0.50-1.88); in experiment [2] (setting [16]), 0.56 (0.28-1.12). Moreover, the “Relative Risk Ratio, MI (95% CI)” value in experiment [2] (setting [11]) is 0.61 (0.35-1.06); in experiment [2] (setting [12]) it was 0.88 (0.64-1.20); in experiment [2] (setting [13]), 0.83 (0.59-1.17); in experiment [2] (setting [14]) it was 0.53 (0.19-1.46); in experiment [2] (setting [15]) it was 0.99 (0.81-2.13); in experiment [2] (setting [16]), 0.57 (0.38-1.12). In addition, the “Relative Risk Ratio, Primary (95% CI)” value was 0.74 (0.47-1.17) in experiment [2] (setting [11]); 0.81 (0.62-1.07) in experiment [2] (setting [12]); 0.76 (0.57-1.02) in experiment [2] (setting [13]); 0.78 (0.35-1.75) in experiment [2] (setting [14]); 0.97 (0.72-1.61) in experiment [2] (setting [15]); 0.57 (0.36-0.90) in experiment [2] (setting [16]). The “Relative Risk Ratio, Stroke (95% CI)” value in experiment [2] (setting [11]) was 0.91 (0.33-2.51); in experiment [2] (setting [12]) it was 0.68 (0.38-1.21); in experiment [2] (setting [13]) it was 0.53 (0.27-1.04); in experiment [2] (setting [14]), 1.29 (0.21-7.82); in experiment [2] (setting [15]), 0.58 (0.25-1.34); in experiment [2] (setting [16]), 0.42 (0.16-1.09). In addition, in experiment [2] (setting [10]), the “benefit of ramipril supplementation for any of the primary CV outcomes” value is recorded as “no significant benefit”. Also, in experiment [2] (other haptoglobin phenotypes (Hp 1-1, Hp 1-2)), the “benefit to ramipril for any of the primary CV outcomes” value is recorded as “no benefit”. Further, the “benefit of ramipril supplementation” value in experiment [2] (unselected DM group) was “no significant benefit”.

Take `O=C1O[C@H]([C@@H](O)CO)C(O)=C1O` [Vitamin C]: the “correlation between CVD outcomes and Vitamin C supplementation” value in experiment [3] is “no correlation could be found”.
